Measured values from PubChem BioAssay (NCI).
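Protocol summary: plate cells (96-well), add compound at 5 concentrations, incubate 48 h, interpolate endpoints linearly. Here, GI50 denotes the concentration required for 50% inhibition of growth. Definition used: TGI = concentration required for complete inhibition of growth.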

Tests used:
Assay in all cases: growth of human tumour cells (NCI), 48 h
[1] = test system: 786-0 renal
[2] = test system: A498 renal
[3] = test system: A549 NSCLC
[4] = test system: ACHN renal
[5] = test system: BT-549 breast
[6] = test system: CAKI-1 renal
[7] = test system: CCRF-CEM leukemia
[8] = test system: COLO 205 colon
[9] = test system: DU-145 prostate
[10] = test system: EKVX NSCLC
[11] = test system: HCC-2998 colon
[12] = test system: HCT-116 colon
[13] = test system: HCT-15 colon
[14] = test system: HL-60(TB) leukemia
[15] = test system: HOP-62 NSCLC
[16] = test system: HOP-92 NSCLC
[17] = test system: HS 578T breast
[18] = test system: HT29 colon
[19] = test system: IGROV1 ovarian
[20] = test system: K-562 leukemia
[21] = test system: KM12 colon
[22] = test system: LOX IMVI melanoma
[23] = test system: M14 melanoma
[24] = test system: MALME-3M melanoma
[25] = test system: MCF7 breast
[26] = test system: MDA-MB-231 breast
[27] = test system: MDA-MB-435
[28] = test system: MOLT-4 leukemia
[29] = test system: NCI-H226 lung
[30] = test system: NCI-H23 lung
[31] = test system: NCI-H460 lung
[32] = test system: NCI-H522 lung
[33] = test system: NCI/ADR-RES ovarian
[34] = test system: OVCAR-3 ovarian
[35] = test system: OVCAR-4 ovarian
[36] = test system: OVCAR-5 ovarian
[37] = test system: OVCAR-8 ovarian
[38] = test system: PC-3 prostate
[39] = test system: RPMI-8226 leukemia
[40] = test system: RXF 393 renal
[41] = test system: SF-268 CNS
[42] = test system: SF-295 CNS
[43] = test system: SF-539 CNS
[44] = test system: SK-MEL-2 melanoma
[45] = test system: SK-MEL-28 melanoma
[46] = test system: SK-MEL-5 melanoma
[47] = test system: SK-OV-3 ovarian
[48] = test system: SN12C renal
[49] = test system: SNB-19 CNS
[50] = test system: SNB-75 CNS
[51] = test system: SR leukemia
[52] = test system: SW-620 colon
[53] = test system: T-47D breast
[54] = test system: TK-10 renal
[55] = test system: U251 CNS
[56] = test system: UACC-257 melanoma
[57] = test system: UACC-62 melanoma
[58] = test system: UO-31 renal
[59] = test system: MDA-N

CC[C@@]1(O)C(=O)OCc2c1cc1n(c2=O)Cc2c-1nc1ccccc1c2/C=N/OC(C)(C)C
GI50 [1]: < 10 nM | TGI [1]: 11200 nM | GI50 [2]: < 16.9 nM | TGI [2]: 169 nM | GI50 [3]: < 10 nM | TGI [3]: 1520 nM | GI50 [4]: < 10 nM | TGI [4]: 127 nM | GI50 [5]: < 13.9 nM | TGI [5]: 2020 nM | GI50 [6]: < 10 nM | TGI [6]: 149 nM | GI50 [7]: < 10 nM | TGI [7]: > 100000 nM | GI50 [8]: 48.3 nM | TGI [8]: 2050 nM | GI50 [9]: < 10 nM | TGI [9]: 13500 nM | GI50 [10]: 73 nM | TGI [10]: 23800 nM | GI50 [11]: 183 nM | TGI [11]: 14100 nM | GI50 [12]: < 10 nM | TGI [12]: 13400 nM | GI50 [13]: 82 nM | TGI [13]: 25700 nM | GI50 [14]: < 10 nM | TGI [14]: < 12.5 nM | GI50 [15]: < 10 nM | TGI [15]: 530 nM | GI50 [16]: < 14.9 nM | TGI [16]: 3400 nM | GI50 [17]: 1130 nM | TGI [17]: > 85500 nM | GI50 [18]: 18.7 nM | TGI [18]: 660 nM | GI50 [19]: 39.1 nM | TGI [19]: 5260 nM | GI50 [20]: 18.9 nM | TGI [20]: > 100000 nM | GI50 [21]: 44.1 nM | TGI [21]: 4840 nM | GI50 [22]: < 10 nM | TGI [22]: 133 nM | GI50 [23]: < 10 nM | TGI [23]: 226 nM | GI50 [24]: 32 nM | TGI [24]: 1580 nM | GI50 [25]: < 10 nM | TGI [25]: 5690 nM | GI50 [26]: 552 nM | TGI [26]: 18100 nM | GI50 [27]: 30.1 nM | TGI [27]: 3920 nM | GI50 [28]: < 10 nM | TGI [28]: 742 nM | GI50 [29]: < 10 nM | TGI [29]: 35.5 nM | GI50 [30]: < 10 nM | TGI [30]: 158 nM | GI50 [31]: < 10 nM | TGI [31]: 1950 nM | GI50 [32]: < 12.4 nM | TGI [32]: 81.2 nM | GI50 [33]: < 10 nM | TGI [33]: 395 nM | GI50 [34]: 80.4 nM | TGI [34]: 1780 nM | GI50 [35]: 311 nM | TGI [35]: 13900 nM | GI50 [36]: 113 nM | TGI [36]: 5470 nM | GI50 [37]: < 11.8 nM | TGI [37]: > 42100 nM | GI50 [38]: 76.9 nM | TGI [38]: 27200 nM | GI50 [39]: 11.6 nM | TGI [39]: 551 nM | GI50 [40]: < 10 nM | TGI [40]: 63.9 nM | GI50 [41]: < 10 nM | TGI [41]: 2800 nM | GI50 [42]: < 10 nM | TGI [42]: 599 nM | GI50 [43]: < 10 nM | TGI [43]: < 21.6 nM | GI50 [44]: 44.7 nM | TGI [44]: 1220 nM | GI50 [45]: 372 nM | TGI [45]: 9070 nM | GI50 [46]: < 10 nM | TGI [46]: 102 nM | GI50 [47]: < 10 nM | TGI [47]: 1340 nM | GI50 [48]: < 10 nM | TGI [48]: 4750 nM | GI50 [49]: < 10 nM | TGI [49]: 10900 nM | GI50 [50]: < 10.9 nM | TGI [50]: 978 nM | GI50 [51]: < 10 nM | TGI [51]: 108 nM | GI50 [52]: < 11 nM | TGI [52]: 14200 nM | GI50 [53]: < 10 nM | TGI [53]: 15100 nM | GI50 [54]: 78.7 nM | TGI [54]: 3520 nM | GI50 [55]: < 10 nM | TGI [55]: 812 nM | GI50 [56]: 66.6 nM | TGI [56]: 1320 nM | GI50 [57]: < 10 nM | TGI [57]: 118 nM | GI50 [58]: < 10 nM | TGI [58]: 122 nM

CCCCCCCC/C=C/CCCCCCCC1CC(O)C(=O)O1 (configuration not stated)
TGI [1]: > 100000 nM | TGI [2]: > 100000 nM | TGI [3]: > 100000 nM | TGI [4]: > 100000 nM | TGI [5]: > 100000 nM | TGI [7]: > 100000 nM | TGI [8]: > 100000 nM | TGI [9]: > 100000 nM | TGI [10]: > 100000 nM | TGI [11]: > 100000 nM | TGI [12]: > 100000 nM | TGI [13]: > 100000 nM | TGI [14]: 88300 nM | TGI [15]: > 100000 nM | TGI [16]: 90900 nM | TGI [18]: > 100000 nM | TGI [19]: > 100000 nM | TGI [20]: > 100000 nM | TGI [22]: > 100000 nM | TGI [23]: > 100000 nM | TGI [24]: > 100000 nM | TGI [25]: > 100000 nM | TGI [26]: > 100000 nM | TGI [27]: > 100000 nM | TGI [59]: > 100000 nM | TGI [28]: > 100000 nM | TGI [29]: > 100000 nM | TGI [30]: > 100000 nM | TGI [31]: > 100000 nM | TGI [33]: > 100000 nM | TGI [34]: 95700 nM | TGI [35]: > 100000 nM | TGI [36]: > 100000 nM | TGI [37]: > 100000 nM | TGI [38]: > 100000 nM | TGI [39]: 76700 nM | TGI [41]: > 100000 nM | TGI [42]: > 100000 nM | TGI [45]: > 100000 nM | TGI [46]: > 100000 nM | TGI [47]: > 100000 nM | TGI [49]: > 100000 nM | TGI [50]: > 100000 nM | TGI [51]: > 100000 nM | TGI [52]: > 100000 nM | TGI [53]: > 100000 nM | TGI [54]: > 100000 nM | TGI [55]: > 100000 nM | TGI [56]: > 100000 nM | TGI [57]: > 100000 nM | TGI [58]: > 100000 nM
